For two compounds, MIC results are on record in ChEMBL document CHEMBL4043183, “Elucidation of a carboxylate O-methyltransferase NcmP in nocamycin biosynthetic pathway” (2017).

What all share (type): functional
One experiment has as its system Micrococcus luteus. Description: Antibacterial activity against Micrococcus luteus CCTCC AB2013120 by broth microdilution method.
Another experiment has as its system Bacillus subtilis. Description: Antibacterial activity against Bacillus subtilis CCTCC AB2013121 by broth microdilution method.
The next experiment relates to Enterococcus faecalis. Description: Antibacterial activity against Enterococcus faecalis ATCC 29212 by broth microdilution method.
Another experiment has as its system Bacillus thuringiensis. Nature of the experiment: Antibacterial activity against Bacillus thuringiensis CCTCC AB2013119 by broth microdilution method.
In the next experiment the test system is Staphylococcus aureus. Description: Antibacterial activity against Staphylococcus aureus ATCC 29213 by broth microdilution method.

Converted amounts (≈) assume the structure as drawn.

Consider `CC(/C=C/C(O)=C1/C(=O)CNC1=O)=C\[C@@H](C)[C@H]1O[C@@]23O[C@H](C(=O)C[C@]2(C)O[C@H](C)[C@@H]3C(=O)O)[C@@H]1C`, for which the minimal inhibitory concentration (MIC) was more than 128 µg/mL in the experiment with Micrococcus luteus; more than 128 µg/mL in the experiment with Bacillus subtilis; more than 128 µg/mL in the experiment on Enterococcus faecalis; 32 µg/mL (≈ 65.4 µM) in the experiment on Bacillus thuringiensis; more than 128 µg/mL against Staphylococcus aureus.

As for `COC(=O)[C@H]1[C@@H](C)O[C@@]2(C)CC(=O)[C@H]3O[C@@]12O[C@H]([C@H](C)/C=C(C)/C=C/C(O)=C1/C(=O)CNC1=O)[C@H]3C`, the MIC with Micrococcus luteus was 16 µg/mL (≈ 31.8 µM); against Bacillus subtilis it was more than 128 µg/mL; against Enterococcus faecalis, 4 µg/mL (≈ 7.94 µM); against Bacillus thuringiensis it was 0.5 µg/mL (≈ 0.993 µM); against Staphylococcus aureus, 32 µg/mL (≈ 63.5 µM).
